Reference: publication PMC11217349, “Development of Nurr1 agonists from amodiaquine by scaffold hopping and fragment growing” (Communications Chemistry, 2024)
Values joined by “and” are separate entries in the source; they are usually repeats but may differ in a detail not shown here. Equal entries are not always repeated.

What was measured:
Nurr1 LBD = target: T1, Nurr1 LBD (Homo sapiens, UniProt P43354); experiment: Isothermal titration calorimetry (ITC); format: binding; conditions: 25 °C
T1 construct: Nurr1 LBD protein (5–30 µM, expressed as described previously[21]); made in house
Description: ITC experiments were conducted on an Affinity ITC instrument (TA Instruments, New Castle, DE) at 25 °C with a stirring rate of 75 rpm. Nurr1 LBD protein (5–30 µM, expressed as described previously[21]) in buffer (20 mM Tris pH 7.5, 100 mM NaCl, 5% glycerol) containing 1–4% DMSO was titrated with the test compounds (30–150 μM in the same buffer containing 1-4% DMSO) in 26 injections (1 × 1 µL, 25 × 3-4 μL) with an injection interval of 120-150 s. As control experiments, the test compounds were titrated to the buffer, and the buffer was titrated to the Nurr1 LBD protein under otherwise identical conditions. Results were analyzed using NanoAnalyze software (version 3.11.0, TA Instruments, New Castle, DE) with independent binding models.

[1] = target: T2, human full-length Nurr1 monomer (NBRE) (Homo sapiens, UniProt P43354); experiment: Full-length Nurr1 reporter gene assay (NBRE); format: cell-based; conditions: full-length human Nurr1 monomer, HEK293T
T2 construct: The full-length human nuclear receptor Nurr1 (pcDNA3.1-hNurr1-NE; Addgene plasmid #102363); host or cells: HEK293T
Description: (§1) Activation of full-length human Nurr1 was studied in transiently transfected HEK293T cells using the reporter plasmids pFR-Luc-NBRE[14], pFR-Luc-POMC[14] or pFR-Luc-DR5[14] each containing one copy of the respective human Nurr1 response element NBRE Nl3, NurRE, or DR5. The full-length human nuclear receptor Nurr1 (pcDNA3.1-hNurr1-NE; Addgene plasmid #102363) and, for DR5, RXRα (pSG5-hRXR)[57] were overexpressed. pRL-SV40 (Promega) was used for the normalization of transfection efficacy and to observe test compound toxicity. […] After 24 h, the medium was changed to Opti-MEM without supplements, and cells were transiently transfected using Lipofectamine LTX reagent (Invitrogen) according to the manufacturer’s protocol. Five hours after transfection, cells were incubated with the test compounds in Opti-MEM supplemented with penicillin (100 U/mL), streptomycin (100 μg/mL) and 0.1% DMSO for 16 h before luciferase activity was measured using the Dual-Glo Luciferase Assay System (Promega) according to the manufacturer’s protocol on a Tecan Spark luminometer (Tecan Deutschland GmbH). Firefly luminescence was divided by Renilla luminescence and multiplied by 1000 resulting in relative light units (RLU) to normalize for transfection efficiency and cell growth. Fold activation was obtained by dividing the mean RLU of the test compound by the mean RLU of the untreated control. All samples were tested in at least three biologically independent experiments in duplicates. For dose-response curve fitting and calculation of EC50 values, the equation “[Agonist] vs. response -- Variable slope (four parameters)” was used in GraphPad Prism (version 7.00, GraphPad Software).

[2] = tested on: Nurr1-regulated TH, VMAT2 and SOD2 mRNA in astrocytes (T98G); experiment: Nurr1-regulated gene expression in T98G astrocytes (qPCR); format: cell-based, human; conditions: vs DMSO control
[3] = target: T3, human full-length Nurr1 homodimer (NurRE) (Homo sapiens, UniProt P43354); experiment: Full-length Nurr1 reporter gene assay (NurRE); format: cell-based; conditions: full-length human Nurr1 homodimer, HEK293T
T3 construct: The full-length human nuclear receptor Nurr1 (pcDNA3.1-hNurr1-NE; Addgene plasmid #102363); host or cells: HEK293T
Description: as §1

[4] = tested on: human midbrain organoids from wildtype iPSC (isogenic control); experiment: Midbrain organoid model, isogenic control; format: cell-based; conditions: immunostaining, fixed area
Microsomal stability = format: in vitro ADME, rat; conditions: for AUC x10^5 (LC-MS peak area of 36 and its demethylated metabolites): incubation of 36 with rat liver microsomes, listed as 36-N(CH3)2
Description: To determine microsomal stability, test compounds (10 μM) were incubated in 100 mM potassium phosphate buffer at pH 7.4 (total volume of 100 µL) containing 0.5 mg/mL male rat liver microsomes (Sprague-Dawley, no. M9066, Merck KGaA, Darmstadt) and 1 mM NADPH for 0, 15, 30, or 60 min. At the end of the incubation time, microsomal activity was terminated by the addition of 500 µL MeCN and subsequent centrifugation at 1700 g for 5 min. A reaction mixture containing heat-inactivated microsomes (95 °C, 10 min) was prepared as a control for each compound. 5 µL supernatant of each sample was analyzed and the remaining concentrations of the respective test compounds at each time point were determined by LC-MS/MS on an API-3200-QTrap (Sciex) with an Agilent Technologies 1100 series setup including a binary pump (G1311A), a degasser (G1322A), and a Shimadzu SIL 20 A HT autosampler under the control of Analyst 1.6 (Sciex). A XBridge BEH C18 (3.5 µm, 150 mm×3 mm, Waters, protected with a 0.5 µm frit) stationary phase was used in combination with a gradient method starting with 0.1% formic acid in water (A) and MeCN (B) as mobile phase (A:B = 80:20) for 6 min going to A: B = 50:50 after 8 min. 5 µL of supernatant diluted in mobile phase starting conditions was loaded onto the column, separated at a flow rate of 400 µL/min, and detected and quantified per Area of MRM (multiple reaction monitoring) with the following transitions: m/z 381.797/145.000 (34); m/z 395.125/158.200 (36); m/z 409.822/131.000 (41); m/z 407.838/171.100 (42).

T1 sequence (P43354 360-595 limits assumed): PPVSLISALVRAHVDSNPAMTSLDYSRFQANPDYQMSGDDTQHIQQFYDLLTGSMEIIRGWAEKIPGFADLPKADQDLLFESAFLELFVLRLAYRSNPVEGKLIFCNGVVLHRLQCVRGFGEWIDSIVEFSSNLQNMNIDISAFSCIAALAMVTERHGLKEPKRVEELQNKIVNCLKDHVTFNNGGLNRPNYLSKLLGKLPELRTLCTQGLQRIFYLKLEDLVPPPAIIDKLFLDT
T2 sequence (P43354 whole entry): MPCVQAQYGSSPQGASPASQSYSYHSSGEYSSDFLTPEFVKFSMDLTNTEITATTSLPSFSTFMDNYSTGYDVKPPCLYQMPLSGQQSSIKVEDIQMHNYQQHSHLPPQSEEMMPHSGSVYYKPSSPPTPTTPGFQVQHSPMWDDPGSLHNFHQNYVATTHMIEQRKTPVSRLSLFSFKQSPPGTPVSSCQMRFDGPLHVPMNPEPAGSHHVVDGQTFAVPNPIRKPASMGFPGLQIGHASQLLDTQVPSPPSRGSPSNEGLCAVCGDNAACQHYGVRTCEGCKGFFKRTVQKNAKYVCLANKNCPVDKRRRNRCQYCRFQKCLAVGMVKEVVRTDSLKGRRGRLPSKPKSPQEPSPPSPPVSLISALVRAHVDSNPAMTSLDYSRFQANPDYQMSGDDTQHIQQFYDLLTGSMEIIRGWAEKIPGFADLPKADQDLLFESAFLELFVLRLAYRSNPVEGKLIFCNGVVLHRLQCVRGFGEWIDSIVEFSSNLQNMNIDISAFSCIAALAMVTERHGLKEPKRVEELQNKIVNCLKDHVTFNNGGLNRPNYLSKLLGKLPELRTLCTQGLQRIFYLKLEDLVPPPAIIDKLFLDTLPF
T3 sequence (P43354 whole entry): as above

Kd (Nurr1 LBD) (Nurr1 LBD)	EC50(NBRE) [1]	EC50(NurRE) [3]	Kd (Nurr1 LBD)	half-life at 10 µM (Microsomal stability; male, Sprague-Dawley, pH 7.4, rat liver microsomes, 10 µM, LCMS)	EC50 [3]	Compound	SOD2 mRNA induction (mean) ([2]; 10 µM)	TH mRNA induction (mean) ([2]; 10 µM)	VMAT2 mRNA induction (mean) ([2]; 10 µM)	TH positive cells [4]	metabolism by rat liver microsomes (route) (Microsomal stability)	AUC x10^5 (LC-MS peak area of 36 and its demethylated metabolites) (Microsomal stability; time 0 min)	AUC x10^5 (LC-MS peak area of 36 and its demethylated metabolites) (Microsomal stability; time 15 min)	SOD2 mRNA induction (mean) ([2]; 0.1 µM)	TH mRNA induction (mean) ([2]; 0.1 µM)	VMAT2 mRNA induction (mean) ([2]; 0.1 µM)	SOD2 mRNA induction (mean) ([2]; 0.3 µM)	TH mRNA induction (mean) ([2]; 0.3 µM)	VMAT2 mRNA induction (mean) ([2]; 0.3 µM)
no binding^b	no activation (10 µM)	no activation (10 µM)	–	–	–	Cc1nc2c(Cl)cccn2c1NC(=O)c1ccc(-c2ccccc2)[nH]1 [Compound 29, N-(8-Chloro-2-methylimidazo[1,2-a]pyridin-3-yl)-5-phenyl-1H-pyrrole-2-carboxamide]	1.131 fold	1.042 fold	0.9124 fold	44 and 37 and 31 and 38	–	–	–	–	–	–	–	–	–
–	no activation (1 µM)	–	0.17 µM	6.3 ± 0.3 min	0.094 ± 0.003 µM	Cc1nc2c(Cl)cccn2c1NC(=O)c1ccc(-c2ccc(N(C)C)cc2)o1 [Compound 36, N-(8-Chloro-2-methylimidazo[1,2-a]pyridin-3-yl)-5-(4-(dimethylamino)phenyl)furan-2-carboxamide]	–	–	–	47 and 50 and 45 and 41	almost exclusively degraded by demethylation of the dimethylamino motif	7.35 x10^5 and 8.16 x10^5 and 6.56 x10^5 and 7.96 x10^5	1.47 x10^5 and 1.4 x10^5 and 1.5 x10^5 and 1.61 x10^5	1.308 fold	1.414 fold	1.925 fold	1.894 fold	1.603 fold	1.791 fold
